This is an account of results in ChEMBL document CHEMBL5465560, “Selectivity Literature for EUbOPEN Chemogenomic Library” (2024).

Experiment [1] deals with Tyrosine-protein kinase Fes/Fps (Homo sapiens) (UniProt P07332). Description: Selectivity interaction (KinomeScan (DiscoverX)) EUB0000595a FES. The following applies: at 10 µM.
Experiment [2] has as its target T1, MAP/microtubule affinity-regulating kinase 4 (Homo sapiens) (UniProt Q96L34).
T1 sequence (whole entry): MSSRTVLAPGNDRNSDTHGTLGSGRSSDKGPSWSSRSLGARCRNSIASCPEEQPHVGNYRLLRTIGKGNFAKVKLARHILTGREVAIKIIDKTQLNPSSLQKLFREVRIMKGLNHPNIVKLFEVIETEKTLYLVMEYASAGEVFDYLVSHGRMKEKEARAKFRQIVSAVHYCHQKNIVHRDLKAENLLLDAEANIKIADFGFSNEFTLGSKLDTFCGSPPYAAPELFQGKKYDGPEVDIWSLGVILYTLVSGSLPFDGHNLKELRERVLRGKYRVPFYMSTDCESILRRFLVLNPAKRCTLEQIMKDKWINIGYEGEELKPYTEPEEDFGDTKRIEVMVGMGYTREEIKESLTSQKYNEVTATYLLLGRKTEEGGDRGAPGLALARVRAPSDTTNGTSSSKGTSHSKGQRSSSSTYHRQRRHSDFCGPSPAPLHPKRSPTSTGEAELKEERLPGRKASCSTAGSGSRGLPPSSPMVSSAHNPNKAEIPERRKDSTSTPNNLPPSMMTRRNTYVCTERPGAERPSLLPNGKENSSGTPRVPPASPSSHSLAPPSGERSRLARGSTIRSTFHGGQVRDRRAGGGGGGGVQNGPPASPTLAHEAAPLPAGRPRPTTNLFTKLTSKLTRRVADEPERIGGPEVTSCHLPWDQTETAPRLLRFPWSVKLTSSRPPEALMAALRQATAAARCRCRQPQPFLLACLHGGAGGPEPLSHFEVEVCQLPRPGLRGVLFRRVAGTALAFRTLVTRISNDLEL
In words: Selectivity interaction (KinomeScan (DiscoverX)) EUB0000595a MARK4. The following applies: at 10 µM.

Experiment [3] has as its target Ribosomal protein S6 kinase alpha-2 (Homo sapiens) (UniProt Q15349). Description: Selectivity interaction (KinomeScan (DiscoverX)) EUB0001619a RPS6KA2. The note with it: at 1 µM.
Experiment [4] deals with Estrogen receptor (Homo sapiens) (UniProt P03372). In words: Selectivity interaction (Eurofins CEREP Diversity Profile (receptors and ion channels)) EUB0000279b ESR1. The note with it: at 10 µM.
Experiment [5] has as its target T2, Calcium/calmodulin-dependent protein kinase type IV (Homo sapiens) (UniProt Q16566).
T2 sequence (whole entry): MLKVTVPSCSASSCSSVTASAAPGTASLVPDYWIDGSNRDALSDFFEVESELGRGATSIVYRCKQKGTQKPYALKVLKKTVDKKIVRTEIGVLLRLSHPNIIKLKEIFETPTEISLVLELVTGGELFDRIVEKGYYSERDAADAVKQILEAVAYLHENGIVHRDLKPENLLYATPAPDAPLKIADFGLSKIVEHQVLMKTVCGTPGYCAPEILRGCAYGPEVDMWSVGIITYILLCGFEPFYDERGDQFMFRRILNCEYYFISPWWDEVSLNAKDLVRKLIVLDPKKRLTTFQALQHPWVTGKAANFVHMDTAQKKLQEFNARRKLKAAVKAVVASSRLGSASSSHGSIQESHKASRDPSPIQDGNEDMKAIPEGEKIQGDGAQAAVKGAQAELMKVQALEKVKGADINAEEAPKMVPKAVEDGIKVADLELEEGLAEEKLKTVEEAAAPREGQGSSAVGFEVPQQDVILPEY
In words: Selectivity interaction (SelectScreen profiling (Invitrogen)) EUB0000607a CAMK4. The following applies: at 2 µM.

Experiment [6] concerns the target Ephrin type-A receptor 7 (Homo sapiens) (UniProt Q15375). In words: Selectivity interaction (Kinase panel (DSF assay)) EUB0001559a EPHA7. (Differential scanning fluorimetry follows unfolding on heating by fluorescence.)
In experiment [7] the target is Homeodomain-interacting protein kinase 1 (Homo sapiens, UniProt Q86Z02). In words: Selectivity interaction (KinomeScan (DiscoverX)) EUB0001049a HIPK1. The following applies: at 1 µM.
The target of experiment [8] is Tyrosine-protein kinase Blk (Homo sapiens) (UniProt P51451). Description: Selectivity interaction (KinomeScan (DiscoverX)) EUB0001049a BLK. The note with it: at 1 µM.
Experiment [9] deals with Activin receptor type-1-like (Homo sapiens) (UniProt P37023). In words: Selectivity interaction (KinomeScan (DiscoverX)) EUB0000655a ACVRL1. The following applies: at 10 µM.
The target in experiment [10] is Fibroblast growth factor receptor 4 (Homo sapiens, UniProt P22455). Description: Selectivity interaction (KinomeScan (DiscoverX)) EUB0000618a FGFR4. The note with it: at 10 µM.
The target in experiment [11] is Tyrosine-protein kinase JAK1 (Homo sapiens, UniProt P23458). In words: Selectivity interaction (KinomeScan (DiscoverX)) EUB0000618a JAK1. The following applies: at 10 µM.
Experiment [12] concerns the target Serine/threonine-protein kinase Chk2 (Homo sapiens) (UniProt O96017). Description: Selectivity interaction (KinomeScan (DiscoverX)) EUB0000092b CHEK2. The note with it: at 10 µM.
Experiment [13] deals with Histone-lysine N-methyltransferase KMT5B (Homo sapiens) (UniProt Q4FZB7). In words: Selectivity interaction (Methyltransferase screen (radiometric assays, panel of 8 PRMTs, 21 protein lysine methyltransferases, 3 DNA methyltransferases, and one RNA methyltransferase)) EUB0000272b SUV420H1.
The target of experiment [14] is T3, Mitogen-activated protein kinase kinase kinase 7 (Homo sapiens) (UniProt O43318).
T3 sequence (whole entry): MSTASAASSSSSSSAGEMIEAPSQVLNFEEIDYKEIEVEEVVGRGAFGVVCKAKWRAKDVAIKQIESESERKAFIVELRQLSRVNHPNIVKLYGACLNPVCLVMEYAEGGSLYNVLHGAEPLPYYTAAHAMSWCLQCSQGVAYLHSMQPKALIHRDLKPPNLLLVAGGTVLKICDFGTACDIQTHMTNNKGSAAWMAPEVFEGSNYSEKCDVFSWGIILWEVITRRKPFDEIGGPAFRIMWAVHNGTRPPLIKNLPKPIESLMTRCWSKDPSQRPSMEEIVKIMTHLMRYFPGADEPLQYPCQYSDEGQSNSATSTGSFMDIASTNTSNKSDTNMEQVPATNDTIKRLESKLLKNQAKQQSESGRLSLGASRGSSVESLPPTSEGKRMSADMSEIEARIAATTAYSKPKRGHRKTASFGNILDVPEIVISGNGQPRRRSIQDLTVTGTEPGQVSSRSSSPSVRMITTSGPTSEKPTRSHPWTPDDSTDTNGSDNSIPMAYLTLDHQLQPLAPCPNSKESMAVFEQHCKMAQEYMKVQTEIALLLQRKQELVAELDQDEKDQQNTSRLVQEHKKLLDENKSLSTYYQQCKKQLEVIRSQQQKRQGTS
In words: Selectivity interaction (KinomeScan (DiscoverX)) EUB0001079a MAP3K7. The following applies: at 1 µM.

Experiment [15] has as its target Proto-oncogene tyrosine-protein kinase Src (Homo sapiens, UniProt P12931). In words: Selectivity interaction (KinomeScan (DiscoverX)) EUB0001079a SRC. The following applies: at 1 µM.
Experiment [16] has as its target Platelet-derived growth factor receptor alpha (Homo sapiens, UniProt P16234). In words: Selectivity interaction (KinomeScan (DiscoverX)) EUB0000229b PDGFRA. The note with it: at 10 µM.

Histone-lysine N-methyltransferase KMT5B (Homo sapiens), sequence (Q4FZB7 whole entry, looked up): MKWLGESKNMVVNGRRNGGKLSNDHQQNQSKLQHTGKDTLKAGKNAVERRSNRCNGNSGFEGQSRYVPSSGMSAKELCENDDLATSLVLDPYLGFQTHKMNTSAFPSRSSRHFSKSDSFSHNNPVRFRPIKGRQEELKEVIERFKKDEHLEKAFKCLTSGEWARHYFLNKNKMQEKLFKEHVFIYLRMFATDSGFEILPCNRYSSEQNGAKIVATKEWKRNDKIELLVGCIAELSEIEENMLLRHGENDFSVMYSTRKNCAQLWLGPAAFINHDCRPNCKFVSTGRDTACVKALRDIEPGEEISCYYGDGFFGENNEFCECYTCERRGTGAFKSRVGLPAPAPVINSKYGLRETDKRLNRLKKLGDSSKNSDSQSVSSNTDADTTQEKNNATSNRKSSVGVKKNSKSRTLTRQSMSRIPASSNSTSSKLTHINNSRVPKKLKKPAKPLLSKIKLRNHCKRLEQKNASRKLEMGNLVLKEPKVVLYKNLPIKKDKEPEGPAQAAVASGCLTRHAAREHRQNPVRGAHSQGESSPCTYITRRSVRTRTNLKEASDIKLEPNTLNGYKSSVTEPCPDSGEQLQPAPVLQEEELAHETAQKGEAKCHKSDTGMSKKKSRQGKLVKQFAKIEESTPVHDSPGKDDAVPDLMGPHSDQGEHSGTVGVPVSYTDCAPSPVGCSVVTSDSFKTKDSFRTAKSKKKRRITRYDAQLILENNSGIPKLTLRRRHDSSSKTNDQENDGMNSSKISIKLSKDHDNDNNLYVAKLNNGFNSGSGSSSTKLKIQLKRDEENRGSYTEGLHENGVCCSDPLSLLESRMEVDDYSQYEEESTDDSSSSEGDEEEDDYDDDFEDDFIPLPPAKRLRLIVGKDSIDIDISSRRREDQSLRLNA
Homeodomain-interacting protein kinase 1, sequence (Q86Z02 whole entry, looked up): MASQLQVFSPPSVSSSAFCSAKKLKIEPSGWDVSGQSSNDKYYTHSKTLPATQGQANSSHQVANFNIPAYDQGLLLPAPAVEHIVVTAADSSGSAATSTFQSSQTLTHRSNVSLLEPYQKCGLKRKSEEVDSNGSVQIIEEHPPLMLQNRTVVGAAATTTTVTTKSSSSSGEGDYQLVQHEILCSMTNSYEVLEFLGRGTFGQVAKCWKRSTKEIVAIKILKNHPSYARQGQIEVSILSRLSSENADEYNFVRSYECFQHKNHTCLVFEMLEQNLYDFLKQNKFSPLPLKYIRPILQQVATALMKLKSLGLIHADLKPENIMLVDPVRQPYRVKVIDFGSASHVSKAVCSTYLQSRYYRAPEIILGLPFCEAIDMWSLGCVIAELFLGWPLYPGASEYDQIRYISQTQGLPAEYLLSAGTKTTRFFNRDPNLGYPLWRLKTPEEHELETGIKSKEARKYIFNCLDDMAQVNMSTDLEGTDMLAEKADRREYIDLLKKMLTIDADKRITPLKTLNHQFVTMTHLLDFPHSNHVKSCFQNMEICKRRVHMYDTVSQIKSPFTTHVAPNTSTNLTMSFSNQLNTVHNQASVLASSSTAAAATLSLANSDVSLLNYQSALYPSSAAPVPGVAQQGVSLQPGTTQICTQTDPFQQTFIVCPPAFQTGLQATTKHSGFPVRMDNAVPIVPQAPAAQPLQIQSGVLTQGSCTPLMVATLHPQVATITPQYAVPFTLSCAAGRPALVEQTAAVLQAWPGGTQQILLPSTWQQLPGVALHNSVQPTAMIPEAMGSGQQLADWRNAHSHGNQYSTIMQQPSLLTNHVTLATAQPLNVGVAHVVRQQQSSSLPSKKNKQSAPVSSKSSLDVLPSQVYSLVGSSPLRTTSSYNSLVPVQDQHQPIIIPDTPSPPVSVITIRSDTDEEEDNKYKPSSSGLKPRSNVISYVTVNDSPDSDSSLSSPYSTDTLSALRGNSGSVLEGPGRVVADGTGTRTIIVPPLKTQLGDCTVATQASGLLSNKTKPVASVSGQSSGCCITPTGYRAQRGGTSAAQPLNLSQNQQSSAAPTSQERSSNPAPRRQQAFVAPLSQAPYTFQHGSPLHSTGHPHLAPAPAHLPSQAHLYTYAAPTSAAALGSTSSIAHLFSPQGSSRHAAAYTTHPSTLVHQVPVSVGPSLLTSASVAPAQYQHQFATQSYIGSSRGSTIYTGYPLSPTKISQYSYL
Fibroblast growth factor receptor 4, sequence (P22455 22-802 limits assumed): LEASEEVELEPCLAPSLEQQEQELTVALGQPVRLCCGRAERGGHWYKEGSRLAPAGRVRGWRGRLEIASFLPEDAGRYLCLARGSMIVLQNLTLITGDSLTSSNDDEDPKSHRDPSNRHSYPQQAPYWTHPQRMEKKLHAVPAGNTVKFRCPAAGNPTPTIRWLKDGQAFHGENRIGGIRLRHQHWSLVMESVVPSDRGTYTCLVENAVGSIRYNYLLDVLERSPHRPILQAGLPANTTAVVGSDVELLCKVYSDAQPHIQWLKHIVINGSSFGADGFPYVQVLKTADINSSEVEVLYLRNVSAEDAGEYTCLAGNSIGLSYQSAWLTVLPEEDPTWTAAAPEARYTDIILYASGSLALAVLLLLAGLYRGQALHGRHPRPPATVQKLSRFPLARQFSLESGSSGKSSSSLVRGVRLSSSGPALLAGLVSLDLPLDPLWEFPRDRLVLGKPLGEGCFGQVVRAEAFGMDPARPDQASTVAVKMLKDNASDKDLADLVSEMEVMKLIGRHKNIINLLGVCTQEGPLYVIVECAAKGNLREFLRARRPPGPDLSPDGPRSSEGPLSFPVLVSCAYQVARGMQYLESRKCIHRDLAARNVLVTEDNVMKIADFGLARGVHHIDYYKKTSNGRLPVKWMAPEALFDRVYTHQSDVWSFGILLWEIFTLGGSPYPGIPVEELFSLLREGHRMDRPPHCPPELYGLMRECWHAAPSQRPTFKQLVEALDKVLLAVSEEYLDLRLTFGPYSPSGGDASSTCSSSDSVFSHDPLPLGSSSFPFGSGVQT
Platelet-derived growth factor receptor alpha, sequence (P16234 whole entry): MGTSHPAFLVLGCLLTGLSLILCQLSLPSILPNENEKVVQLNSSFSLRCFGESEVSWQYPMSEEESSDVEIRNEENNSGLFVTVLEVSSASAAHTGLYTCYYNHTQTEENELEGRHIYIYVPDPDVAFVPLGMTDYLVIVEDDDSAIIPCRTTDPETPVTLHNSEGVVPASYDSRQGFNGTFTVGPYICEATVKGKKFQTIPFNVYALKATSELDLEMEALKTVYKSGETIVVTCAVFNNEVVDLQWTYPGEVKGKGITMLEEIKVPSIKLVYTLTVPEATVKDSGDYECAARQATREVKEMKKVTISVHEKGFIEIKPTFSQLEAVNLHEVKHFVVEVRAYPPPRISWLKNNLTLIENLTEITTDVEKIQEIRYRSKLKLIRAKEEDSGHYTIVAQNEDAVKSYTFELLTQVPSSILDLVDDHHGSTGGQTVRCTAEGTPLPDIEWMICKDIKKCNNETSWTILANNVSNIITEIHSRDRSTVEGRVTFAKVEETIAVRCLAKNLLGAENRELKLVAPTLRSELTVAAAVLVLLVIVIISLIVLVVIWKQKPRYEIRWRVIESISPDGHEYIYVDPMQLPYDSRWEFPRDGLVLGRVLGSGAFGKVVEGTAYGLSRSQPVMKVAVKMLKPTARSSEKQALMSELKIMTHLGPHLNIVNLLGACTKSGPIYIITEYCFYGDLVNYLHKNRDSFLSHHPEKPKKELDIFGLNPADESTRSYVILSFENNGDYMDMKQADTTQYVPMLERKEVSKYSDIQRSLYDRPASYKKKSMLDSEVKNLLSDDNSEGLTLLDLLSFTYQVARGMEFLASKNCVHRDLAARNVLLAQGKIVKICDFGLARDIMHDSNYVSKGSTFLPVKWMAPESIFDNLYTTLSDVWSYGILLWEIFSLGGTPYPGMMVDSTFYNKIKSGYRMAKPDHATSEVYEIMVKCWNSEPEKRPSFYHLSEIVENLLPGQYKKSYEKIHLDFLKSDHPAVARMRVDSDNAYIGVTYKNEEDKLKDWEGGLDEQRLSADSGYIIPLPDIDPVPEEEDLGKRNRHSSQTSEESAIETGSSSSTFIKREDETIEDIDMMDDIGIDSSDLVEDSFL
Proto-oncogene tyrosine-protein kinase Src, sequence (P12931 2-536 limits assumed): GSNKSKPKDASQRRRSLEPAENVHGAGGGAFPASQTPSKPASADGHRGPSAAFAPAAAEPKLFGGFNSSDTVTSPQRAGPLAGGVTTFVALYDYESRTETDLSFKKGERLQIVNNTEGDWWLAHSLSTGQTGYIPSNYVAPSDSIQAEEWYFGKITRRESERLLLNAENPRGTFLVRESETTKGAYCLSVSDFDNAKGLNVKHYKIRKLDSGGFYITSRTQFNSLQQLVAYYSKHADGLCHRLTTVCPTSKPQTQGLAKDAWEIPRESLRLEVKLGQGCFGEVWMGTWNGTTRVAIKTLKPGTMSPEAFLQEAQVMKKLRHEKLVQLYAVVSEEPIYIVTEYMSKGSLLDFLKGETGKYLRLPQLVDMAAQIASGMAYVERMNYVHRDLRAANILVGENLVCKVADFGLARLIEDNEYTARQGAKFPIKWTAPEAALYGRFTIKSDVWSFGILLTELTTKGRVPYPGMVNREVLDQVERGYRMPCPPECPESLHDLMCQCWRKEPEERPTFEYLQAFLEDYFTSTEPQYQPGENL
Activin receptor type-1-like (Homo sapiens), sequence (P37023 whole entry): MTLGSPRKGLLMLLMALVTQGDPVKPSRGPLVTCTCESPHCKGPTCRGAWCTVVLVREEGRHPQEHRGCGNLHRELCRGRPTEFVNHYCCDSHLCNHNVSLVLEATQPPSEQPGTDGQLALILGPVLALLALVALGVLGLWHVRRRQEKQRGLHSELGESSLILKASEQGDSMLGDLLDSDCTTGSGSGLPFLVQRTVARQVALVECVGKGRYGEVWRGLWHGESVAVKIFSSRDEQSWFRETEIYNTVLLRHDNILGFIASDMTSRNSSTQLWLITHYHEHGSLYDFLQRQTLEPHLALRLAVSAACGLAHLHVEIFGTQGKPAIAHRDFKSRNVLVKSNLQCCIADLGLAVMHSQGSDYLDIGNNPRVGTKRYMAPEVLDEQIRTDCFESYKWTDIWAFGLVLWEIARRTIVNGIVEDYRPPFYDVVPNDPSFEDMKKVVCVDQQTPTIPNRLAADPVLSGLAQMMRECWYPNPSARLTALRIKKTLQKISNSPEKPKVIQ

On to `COCC(=O)NC/C=C/c1ccc2ncnc(Nc3ccc(Oc4ccc(C)nc4)c(C)c3)c2c1` [CP-724714], for which the % of control in experiment [1] and in experiment [2] was 100% throughout. As for `N#Cc1cccc(-c2c[nH]c3ncnc(N4CCOCC4)c23)c1`, the % of control in [3] was 82%. `CC(=O)c1cc(-c2ccccc2OCC2CC2)c2ncccn12` came in with a % of control in experiment [4] of 98%. As for `CNC(=O)Nc1ccc(-c2nc(N3CC4CCC(C3)O4)c3cnn(C4CCC5(CC4)OCCO5)c3n2)cc1`, the % of inhibition in experiment [5] was -1%.

As for `CN(C(=O)c1cnn2cccnc12)c1cc2c(cc1N1CCOCC1)C(=O)N(C[C@@H](F)C(C)(C)O)C2`, the dTM in [6] amounted to 0.1 K. On to `COc1cc(Nc2nc(C)cc(-c3cnn4nc(OC)ccc34)n2)cc(C(F)(F)F)c1`, for which the % of control was 70% in experiment [7] and 100% in [8]. In [9], `CN(C)CCOc1ccc(-c2nc(-c3ccncc3)c(-c3ccc4c(c3)CC/C4=N\O)[nH]2)cc1` came in with a % of control of 67%. As to `O[C@H]1CC[C@H](Nc2ncc3nc(Nc4c(F)cc(F)cc4F)n([C@H]4CCOC4)c3n2)CC1`, the figures for the % of control in [10] and in experiment [11] were 74% and 70%, respectively. Turning to `CCC(=O)N1CCN(c2ccc(-n3c(=O)ccc4cnc5ccc(-c6cnc7ccccc7c6)cc5c43)cc2C(F)(F)F)CC1`, in experiment [12], the % of control is 100%.

Regarding `Cc1cc(C)cc([C@H]2c3cc(C)ccc3NC(=O)CN2C(=O)c2ccc(Br)s2)c1`, the % of activity in experiment [13] (at 1 µM) and in experiment [13] (at 10 µM) was 103% each time. In the case of `Nc1cnc(N2CCc3cc(S(=O)(=O)Nc4c(F)cc(Cl)cc4F)cc(N4CCCC4=O)c32)nc1` [TP-020n], the % of control stood at 100% in experiment [14] and 99% in experiment [15]. In turn, `COc1cc(N(C)c2ccnc3ccc(C(F)(F)F)cc23)cc(OC)c1OC` returned a % binding in experiment [16] of 98%.
